These results are taken from ChEMBL document CHEMBL1136015, “Inhibitors of human histone deacetylase: synthesis and enzyme and cellular activity of straight chain hydroxamates” (J Med Chem, 2002).

For assay [1], the system named is HCT-116. The experiment in a line: Concentration required to inhibit the HCT116 cell growth by 50%. The settings on record: Homo sapiens. The class given is functional, cell-based.
Assay [2] concerns the target Histone deacetylase. As to the kind of experiment: Concentration required to inhibit the partially purified HDAC enzyme by 50% obtained from H1299 cell lysate. The class given is functional, cell-based, Homo sapiens.
Assay [3] addresses Histone deacetylase. The experiment in a line: Induction of p21 using Histone deacetylase inhibitors. The assay is classed as protein assay, Homo sapiens.
In assay [4] the target is Histone deacetylase. As to the kind of experiment: Concentration required to inhibit human Histone deacetylase (HDAC) enzyme by 50%. The assay is classed as protein assay.
Another assay relates to A549. As to the kind of experiment: Concentration required to inhibit the lung A549 cell growth by 50%,P53 status of cell line used was wild-type. The assay is classed as functional, cell-based. The settings on record: Homo sapiens.
Assay [5] has as its system HCT-116. As to the kind of experiment: Concentration required to inhibit the colon HCT116 cell growth by 50%,P53 status of cell line used was wild-type. The settings on record: Homo sapiens. The assay is classed as functional, cell-based.
The next assay relates to LS174T. The experiment in a line: Concentration required to inhibit the colon LS 174T cell growth by 50%,P53 status of cell line used was […]. The assay is classed as functional, cell-based. The settings on record: Homo sapiens.
A short description of assay [6]: Concentration required to inhibit the breast MDA-MB-435S cell growth by 50%,P53 status of cell line used was mutant-type. The class given is functional. The settings on record: Homo sapiens.
Another assay has as its system SW-620. As to the kind of experiment: Concentration required to inhibit the colon SW 620 cell growth by 50%,P53 status of cell line used was mutant-type. The class given is functional, cell-based. The settings on record: Homo sapiens.
The test system of another assay is NCI-H1299. As to the kind of experiment: Concentration required to inhibit the lung H1299 cell growth by 50%,P53 status of cell line used was deleted. The settings on record: Homo sapiens.
The next assay concerns T-24. As to the kind of experiment: Concentration required to inhibit the bladder T24 cell growth by 50%,P53 status of cell line used was mutant. The settings on record: Homo sapiens.
The subject of the next assay is A-431. As to the kind of experiment: Concentration required to inhibit the epidermoid A431 cell growth by 50%, P53 status of cell line used was mutant. The settings on record: Homo sapiens.

Each structure is given as a SMILES string. Square brackets hold non-standard residues; d marks the D form. Peptide text beside a SMILES is read from it. Aoe = N[C@@H](CCCCCC(=O)[C@@H]1CO1)C(=O)O

By IC50 is commonly meant the point on the concentration scale where inhibition reaches its midpoint. Low readings indicate greater potency, high ones weaker potency. On to `O=C(CCCCCCC(=O)Nc1cccnc1)NO` [PYROXAMIDE], for which inhibition in the assay with HCT-116 [1] was half-maximal at 6.5 µM (IC50).
As usually defined, the AC50 is the concentration giving half of the maximal activity seen. The low end stands for activity at low concentration, the high end for activity only at high concentration. As to `CN(C)c1ccc(C(=O)NCCCCCCCC(=O)NO)cc1`, the 50% inhibitory concentration (IC50) in the assay with HCT-116 [1] came out at 0.5 µM; at Histone deacetylase [2], 2.18 µM; at Histone deacetylase [4] it was 0.145 µM. This compound returned an AC50 at Histone deacetylase [3] of 1.6 µM.
The matching figures for `O=C(CCCCCCNC(=O)c1ccccc1)NO`: 1.04 µM, above 10 µM, 0.568 µM and 5.7 µM.
The compound `CN(CCCCCC(=O)NO)C(=O)c1ccc(N(C)C)cc1` came in with an AC50 at Histone deacetylase [3] above 10 µM. The same compound came in with an IC50 on Histone deacetylase [4] of 0.443 µM.
On to `O=C(O)CCCCCCC(=O)c1ccccc1`, for which the IC50 is 1.72 µM with HCT-116 [1], above 10 µM on Histone deacetylase [2] and 0.27 µM at Histone deacetylase [4]. The compound also had an AC50 on Histone deacetylase [3] of 4.1 µM.
Regarding `O=C(CCCCCCC(=O)Nc1ccncc1)NO`, the results for the half-maximal inhibitory concentration (IC50) with HCT-116 [1], against Histone deacetylase [2] and against Histone deacetylase [4] were 5.4 µM, above 10 µM and 0.306 µM, respectively. The same compound registered a concentration at half-maximal activity (AC50) at Histone deacetylase [3] of 8.9 µM.
For `O=C(CCCCCCC(=O)Nc1ccccn1)NO`, the midpoint of inhibition in the assay on HCT-116 [1], the IC50, lay at 2 µM.
`COc1ccc(NC(=O)CCCCCCC(=O)NO)cc1`: the half-maximal inhibitory concentration (IC50) with HCT-116 [1] is above 10 µM; at Histone deacetylase [2] it was above 10 µM; against Histone deacetylase [4], 0.279 µM. Further, the concentration at half-maximal activity (AC50) at Histone deacetylase [3] is 2.4 µM.
Take `O=C(CCCCCNC(=O)c1ccc(OCc2ccccc2)cc1)NO`: the half-maximal activity concentration (AC50) at Histone deacetylase [3] is above 10 µM. For the same compound, the IC50 at Histone deacetylase [4] is 0.22 µM.
For `O=C(CCCCCNC(=O)c1ccc([N+](=O)[O-])cc1)NO`, in that order: above 10 µM and 1.556 µM.
On to `CN(C)c1ccc(C(=O)NCCCCCCC(=O)NO)cc1`, for which the IC50 with A549 stood at 0.8 µM; in the assay on HCT-116 [1] it was 0.21 µM; in the assay on HCT-116 [5] it was 0.2 µM; on Histone deacetylase [2], 1.62 µM; on Histone deacetylase [4], 0.046 µM; in the assay with LS174T, 1.5 µM. Also, the IC50 in [6] came out at 1.3 µM; in the assay with SW-620, 0.7 µM; with NCI-H1299 it was 3.9 µM; in the assay on T-24, 3.8 µM; with A-431 it was 2.3 µM. The compound further registered an AC50 on Histone deacetylase [3] of 2.1 µM.
Consider `CC(/C=C/C(=O)NO)=C\[C@@H](C)C(=O)c1ccc(N(C)C)cc1` [TRICHOSTATIN], for which 0.013 µM corresponded to half-maximal inhibition in the assay with HCT-116 [1] (IC50).
For the compound `O=C(CCCCCNC(=O)c1ccc(Cl)cc1)NO`, the concentration at half-maximal activity (AC50) at Histone deacetylase [3] is above 10 µM. The IC50 against Histone deacetylase [4] stood at 0.369 µM.
The matching figures for `O=C(CCCCCN1C(=O)c2ccccc2C1=O)NO`: 7.5 µM and 0.515 µM.
For `O=C(CCCCCNC(=O)c1ccc(-c2ccccc2)cc1)NO`, in that order: above 10 µM and 0.265 µM.
As for `CONC(=O)CCCCCNC(=O)c1ccccc1`, on Histone deacetylase [3], the half-maximal activity concentration (AC50) is above 10 µM. The compound also showed an IC50 at Histone deacetylase [4] above 10 µM.
Compound `CN(C)c1ccc(C(=O)NCCCCC(=O)NO)cc1` displayed a half-maximal activity concentration (AC50) on Histone deacetylase [3] above 10 µM. The concentration for half-maximal inhibition (IC50) against Histone deacetylase [4] was above 10 µM.
Consider `NNC(=O)CCCCCNC(=O)c1ccccc1`, for which the AC50 at Histone deacetylase [3] was above 10 µM. The compound also came in with an IC50 against Histone deacetylase [4] above 10 µM.
`O=C1N[C@@H](Cc2ccccc2)C(=O)N2CCC[C@@H]2C(=O)N[C@@H](CCCCCC(=O)[C@@H]2CO2)C(=O)N[C@H]1Cc1ccccc1` [TRAPOXIN B] (cyclo(FF[dP][Aoe])) came in with an IC50 with HCT-116 [1] of 0.002 µM.
